Experiments:
[1] = target: Peptidyl-prolyl cis-trans isomerase FKBP1A (Homo sapiens, UniProt P62942); assay: The compound was tested for binding affinity against human FK506 binding protein 12
[2] = system: Rattus norvegicus; assay: The compound was tested in vivo for lympho-proliferation,against popliteal lymph node(inbred male rats) after i.p. administration; type: functional; conditions: ip
[3] = species: Homo sapiens; assay: Immunosuppressive activity examined in an in vitro model of allogenic T-lymphocyte activation (by MLR assay); type: functional
[4] = species: Homo sapiens; assay: Immunosuppressive activity examined in an in vitro model of allogenic T-lymphocyte activation(by MLR assay); type: functional

Chain of Peptidyl-prolyl cis-trans isomerase FKBP1A (P62942 whole entry): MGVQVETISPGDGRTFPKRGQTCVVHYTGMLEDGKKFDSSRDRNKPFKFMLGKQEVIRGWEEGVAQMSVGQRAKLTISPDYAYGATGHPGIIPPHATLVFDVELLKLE

IC50 [1]	IC50 [3]	IC50 [4]	Compound	ED50 [2]
770 pM	150 pM	–	CC[C@@H]1/C=C(\C)C[C@H](C)C[C@H](OC)[C@H]2O[C@@](O)(C(=O)C(=O)N3CCCC[C@H]3C(=O)O[C@H](/C(C)=C/[C@@H]3CC[C@@H](O)[C@H](OC)C3)[C@H](C)CCC1=O)[C@H](C)C[C@@H]2OC	0.65 mg/kg/day
–	230 pM	–	C=CC[C@@H]1/C=C(\C)C[C@H](C)C[C@H](OC)[C@H]2O[C@@](O)(C(=O)C(=O)N3CCCC[C@H]3C(=O)O[C@H](/C(C)=C/[C@@H]3CC[C@@H](O)[C@H](OC)C3)[C@H](C)[C@@H](O)CC1=O)[C@H](C)C[C@@H]2OC [TACROLIMUS ANHYDROUS]	0.15 mg/kg/day
–	260 pM	–	CC[C@@H]1/C=C(\C)C[C@H](C)C[C@H](OC)[C@H]2O[C@@](O)(C(=O)C(=O)N3CCCC[C@H]3C(=O)O[C@H](/C(C)=C/[C@@H]3CC[C@@H](O)[C@H](OC)C3)[C@H](C)[C@@H](O)CC1=O)[C@H](C)C[C@@H]2OC [ASCOMYCIN]	0.32 mg/kg/day
529000 pM	–	22000 pM	CC[C@@H]1/C=C(\C)C[C@H](C)C[C@H](OC)[C@H]2O[C@@](O)(C(=O)C(=O)N3CCCC[C@H]3C(=O)O[C@H](/C(C)=C/[C@@H]3CC[C@@H](O)[C@H](OC)C3)[C@H](C)/C=C/C1=O)[C@H](C)C[C@@H]2OC	–

— ChEMBL document CHEMBL1132455, “Retention of immunosuppressant activity in an ascomycin analogue lacking a hydrogen-bonding interaction with FKBP12” (J Med Chem, 1999)
